Experimental data reported in EP3290412A1, “HIV-1 NUCLEOCAPSID INHIBITORS” (Università degli Studi di Siena, priority 2016, dated 2018).
Read-outs that look alike come from different tables or passages of the source.

Key:
NC(11-55) = NC(11-55) (Human immunodeficiency virus type 1, UniProt P12493); assay: NC inhibition assay (NC-induced cTAR DNA destabilization, fluorescence); type: biochemical, HIV-1; settings: for inhibition at 100 µM: single point screening, positive = >25% inhibition at 100µM
In short: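 Doubly labelled cTAR (0.1 µM, Alexa488/Dabcyl) pre-complexed with 1 µM Zn-loaded NC(11-55) for 15 min, then compound added for a further 15 min; run at 20 °C in Tris-HCl pH 7.5, 30 mM NaCl, 0.2 mM MgCl2. Fluorescence read at ex 480/em 520 nm. IC50 taken from dose-response fit of % inhibition of NC-induced fluorescence increase.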

HIV-1 integrase = biological target: T1, HIV-1 integrase (Human immunodeficiency virus type 1 group M subtype B, UniProt P04585); assay: HIV-integrase assay (strand transfer kit); type: biochemical
T1 construct: Full-length recombinant HIV-1 integrase protein was loaded onto the DS DNA substrate; purchased Xpress Bio Co EZ-1700
Experimental: The integrase assay was performed using the HIV-1 integrase assay kit (Xpress Bio Co, catalog number EZ-1700, Thurmont, MD) according to the manufacturer's instructions. In this assay the streptavidin-coated 96-well plates were used and coated with a double stranded HIV-1 LTR U5 donor substrate (DS) DNA containing an end-labeled biotin. Full-length recombinant HIV-1 integrase protein was loaded onto the DS DNA substrate. After, the compounds were added in the concentration 5 - 1500 µM, and then a different double-stranded target substrate (TS) DNA containing a 3'-end modification was added to the reaction mixture. The HIV-1 integrase cleaved the terminal two bases from the exposed 3'-end of the HIV-1 LTR DS DNA and then catalyzed a strand-transfer recombination reaction to integrate the DS DNA into the TS DNA. The products of the reaction were detected colorimetrically using an HRP-labeled antibody directed against TS 3'-end modification. […] The percentage of DMSO was fixed at 2.5% v/v in all samples. The absorbance at 450 nm was recorded with an iMark™ Microplate Absorbance Reader (Bio-Rad Laboratories). The absorbance values were corrected from the mean blank absorbance (reaction buffer negative control). To calculate the IC50 values, the experimental data were fitted in a logarithm scale using Origin software (Dose response fitting).

[1] = system: HIV-1 reference strain NL4-3; assay: MonoCycle assay (TZM-bl cells); type: cell-based; settings: Human immunodeficiency virus 1, NL43, TZM-bl, 48 h, read-out: Mono Cycle IC50 nM
In short: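 TZM-bl cells (20,000/well) were infected with NL4-3 in the presence of five-fold serial inhibitor dilutions. After 48 h, cells were lysed and luciferase luminescence (RLU) was counted. IC50 was derived from the RLU data.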

Question: `Cc1nnc(C(=O)NC(C)(C)c2nc(C(=O)NCc3ccc(F)cc3)c(O)c(=O)n2C)o1` [Raltegravir™, Raltegravir, reference compound] was tested. Which “HIV-1 nucleocapsid inhibition (result in words)” value (NC(11-55); same experimental settings as the compounds of the invention) did it give?
Answer: The value was “inactive”.

Question: What about the inhibition at 0.175 µM (HIV-1 integrase; read-out: % of inhibition (positive control)) of the same compound?
Answer: Its inhibition at 0.175 µM is ≥ 97%.

Question: For `CCNCc1ccc(-c2nc(O)c(O)c(C(=O)N[C@H](C)C3CCCCC3)n2)nc1` [Compound 60, (R)-N-(1-cyclohexylethyl)-2-(5-((ethylamino)methyl)pyridin-2-yl)-5,6-dihydroxypyrimidine-4-carboxamide], which IC50 (NC(11-55)) is on record?
Answer: The IC50 was 3.5 µM.

Question: And the inhibition at 100 µM (NC(11-55))?
Answer: Its inhibition at 100 µM is > 25%.

Question: And the IC50 [1]?
Answer: Its IC50 is > 50000 nM.

Question: What about the IC50 (HIV-1 integrase) of the same compound?
Answer: The IC50 was 10 µM.

Question: And the “fold increase in IN IC50 values in comparison to NC Inhibition IC50 values” (from here on “fold increase … to NC Inhibition IC50 values”) (HIV-1 integrase)?
Answer: Its value is 2.9 fold.

Question: `COc1ccnc(-c2nc(O)c(O)c(C(=O)N[C@H](C)C3CCCCC3)n2)c1` [Compound 28, (R)-N-(1-cyclohexylethyl)-5,6-dihydroxy-2-(4-methoxypyridin-2-yl)pyrimidine-4-carboxamide] was tested. Which IC50 (NC(11-55)) did it give?
Answer: The IC50 was 22 µM.

Question: What about the inhibition at 100 µM (NC(11-55)) of the same compound?
Answer: The inhibition at 100 µM was > 25%.

Question: What about the IC50 [1] of the same compound?
Answer: Its IC50 is 34300 nM.

Question: And the IC50 (HIV-1 integrase)?
Answer: The IC50 was 84 µM.

Question: What about the “fold increase … to NC Inhibition IC50 values” (HIV-1 integrase) of the same compound?
Answer: The value was 3.8 fold.

Question: For `C[C@@H](NC(=O)c1nc(-c2cc(Cl)ccn2)nc(O)c1O)C1CCCCC1` [Compound 26, (R)-2-(4-chloropyridin-2-yl)-N-(1-cyclohexylethyl)-5,6-dihydroxypyrimidine-4-carboxamide], which IC50 (NC(11-55)) is on record?
Answer: The IC50 was 1.5 µM.

Question: What about the inhibition at 100 µM (NC(11-55)) of the same compound?
Answer: The inhibition at 100 µM was > 25%.

Question: And the IC50 [1]?
Answer: The IC50 was 17600 nM.

Question: What about the IC50 (HIV-1 integrase) of the same compound?
Answer: The IC50 was 150 µM.

Question: What about the “fold increase … to NC Inhibition IC50 values” (HIV-1 integrase) of the same compound?
Answer: Its value is 100 fold.

Question: `C[C@@H](NC(=O)c1nc(-c2cc(CCN)ccn2)nc(O)c1O)C1CCCCC1` [Compound 88, (R)-2-(4-(2-aminoethyl)pyridin-2-yl)-N-(1-cyclohexylethyl)-5,6-dihydroxypyrimidine-4-carboxamide] was tested. Which IC50 (NC(11-55)) did it give?
Answer: The IC50 was 7.5 µM.

Question: And the inhibition at 100 µM (NC(11-55))?
Answer: Its inhibition at 100 µM is > 25%.

Question: And the IC50 [1]?
Answer: The IC50 was > 50000 nM.

Question: `C[C@@H](NC(=O)c1nc(-c2ncccc2Cl)nc(O)c1O)C1CCCCC1` [Compound 33, (R)-2-(3-chloropyridin-2-yl)-N-(1-cyclohexylethyl)-5,6-dihydroxypyrimidine-4-carboxamide] was tested. Which IC50 (NC(11-55)) did it give?
Answer: The IC50 was 18 µM.

Question: What about the inhibition at 100 µM (NC(11-55)) of the same compound?
Answer: The inhibition at 100 µM was > 25%.

Question: And the IC50 [1]?
Answer: The IC50 was > 50000 nM.

Question: With `O=C(OCC1CCCCC1)c1nc(-c2ccccn2)nc(O)c1O` [Compound 2, cyclohexylmethyl 5,6-dihydroxy-2-(pyridin-2-yl)pyrimidine-4-carboxylate] as the compound, how does the IC50 (NC(11-55)) read?
Answer: The IC50 was 74 µM.

Question: And the inhibition at 100 µM (NC(11-55))?
Answer: Its inhibition at 100 µM is > 25%.

Question: And the IC50 [1]?
Answer: Its IC50 is > 50000 nM.

Question: For `C[C@@H](NC(=O)c1nc(-c2cc(N3CCN(C)CC3)ccn2)nc(O)c1O)C1CCCCC1` [Compound 76, (R)-N-(1-cyclohexylethyl)-5,6-dihydroxy-2-(4-(4-methylpiperazin-1-yl)pyridin-2-yl)pyrimidine-4-carboxamide], which IC50 (NC(11-55)) is on record?
Answer: The IC50 was 7 µM.

Question: What about the inhibition at 100 µM (NC(11-55)) of the same compound?
Answer: Its inhibition at 100 µM is > 25%.

Question: And the IC50 [1]?
Answer: Its IC50 is 18300 nM.

Question: `C[C@@H](NC(=O)c1nc(-c2ccc3ccccc3n2)nc(O)c1O)C1CCCCC1` [Compound 22, (R)-N-(1-cyclohexylethyl)-5,6-dihydroxy-2-(quinolin-2-yl)pyrimidine-4-carboxamide] was tested. Which IC50 (NC(11-55)) did it give?
Answer: Its IC50 is 3 µM.

Question: And the inhibition at 100 µM (NC(11-55))?
Answer: Its inhibition at 100 µM is > 25%.

Question: What about the IC50 [1] of the same compound?
Answer: Its IC50 is 100000 nM.

Question: `O=C(NCC1CC1)c1nc(-c2ccccn2)nc(O)c1O` [Compound 3, N-(cyclopropylmethyl)-5,6-dihydroxy-2-(pyridin-2-yl)pyrimidine-4-carboxamide] was tested. Which IC50 (NC(11-55)) did it give?
Answer: Its IC50 is 390 µM.

Question: What about the inhibition at 100 µM (NC(11-55)) of the same compound?
Answer: Its inhibition at 100 µM is > 25%.

Question: And the IC50 [1]?
Answer: The IC50 was 27400 nM.

Question: How did the IC50 (NC(11-55)) turn out when `Cc1cccnc1-c1nc(O)c(O)c(C(=O)NCC2CCCCC2)n1` [Compound 11, N-(cyclohexylmethyl)-5,6-dihydroxy-2-(3-methylpyridin-2-yl)pyrimidine-4-carboxamide] was run?
Answer: The IC50 was 14.3 µM.

Question: What about the inhibition at 100 µM (NC(11-55)) of the same compound?
Answer: The inhibition at 100 µM was > 25%.

Question: What about the IC50 [1] of the same compound?
Answer: Its IC50 is 50000 nM.

Question: `CC(C)(CNC(=O)c1nc(-c2ccccn2)nc(O)c1O)C1CCCC1` [Compound 63, N-(2-cyclopentyl-2-methylpropyl)-5,6-dihydroxy-2-(pyridin-2-yl)pyrimidine-4-carboxamide] was tested. Which IC50 (NC(11-55)) did it give?
Answer: Its IC50 is 7 µM.

Question: What about the inhibition at 100 µM (NC(11-55)) of the same compound?
Answer: Its inhibition at 100 µM is > 25%.

Question: And the IC50 [1]?
Answer: The IC50 was 11800 nM.

Question: How did the IC50 (NC(11-55)) turn out when `CN1CCCC(CNC(=O)c2nc(-c3ccccn3)nc(O)c2O)C1` (centres unmarked) [Compound 7, 5,6-dihydroxy-N-((1-methylpiperidin-3 - yl)methyl)-2-(pyridin-2-yl)pyrimidine-4-carboxamide] was run?
Answer: Its IC50 is 335 µM.

Question: And the inhibition at 100 µM (NC(11-55))?
Answer: The inhibition at 100 µM was > 25%.

Question: What about the IC50 [1] of the same compound?
Answer: The IC50 was > 50000 nM.

Question: For `C[C@@H](NC(=O)c1nc(-c2ccc(NC(=O)OC(C)(C)C)cn2)nc(O)c1O)C1CCCCC1` [Compound 61, tert-butyl (R)-(6-(4-((1-cyclohexylethyl)carbamoyl)-5,6-dihydroxypyrimidin-2-yl)pyridin-3-yl)carbamate], which IC50 (NC(11-55); cTAR DNA 0.1 µM, 1 µM NC(11-55), 20 °C, pH 7.5, read-out: NC inhibition IC50) is on record?
Answer: The IC50 was 17 µM.

Question: And the inhibition at 100 µM (NC(11-55))?
Answer: The inhibition at 100 µM was > 25%.

Question: And the IC50 [1]?
Answer: Its IC50 is 7180 nM.
